Bridge positions count the residues as written; N and C are the ends. Peptide text beside a SMILES is read from it.
Legend:
[1] = biological target: T1, Transcription factor Jun (Homo sapiens, UniProt P05412); test: Inhibition of AP-1-mediated transcriptional activation in HEK293 cells by luciferase reporter gene assay; format: cell-based
[2] = biological target: T1, Transcription factor Jun; test: Inhibition of AP-1-mediated transcriptional activation in human Jurkat cells by luciferase reporter gene assay; format: cell-based
[3] = biological target: T1, Transcription factor Jun; test: Inhibition of AP-1-mediated transcriptional activation in human HeLa cells at 10 ug/ml; format: cell-based
[4] = biological target: T1, Transcription factor Jun; test: Inhibition of AP-1-mediated transcriptional activation in human HeLa cells at 1 ug/ml; format: cell-based
[5] = biological target: Transcription factor Jun (Mus musculus) (UniProt P05627); test: Inhibition of AP-1-mediated transcriptional activation in lipopolysaccharide-stimulated mouse RAW 264.7 cells assessed ratio of luciferase activity normalized to Renilla luciferase activity by luciferase reporter gene assay
[6] = species on record: Rattus norvegicus; test: Antiinflammatory activity in adjuvant-induced arthritis rat model assessed as reduction in swelling in noninjected foot; format: functional
[7] = biological target: Nuclear factor NF-kappa-B complex (Homo sapiens, UniProt Q00653+P19838+Q04206); test: Inhibition of NF-kappaB-mediated transcriptional activation in human Jurkat cells by luciferase reporter gene assay; format: cell-based
[8] = biological target: T2, Transcription factor AP1 (Homo sapiens, UniProt P01100+P05412); test: Inhibition of Fos-Jun dimer formation (unknown origin) by EMSA method; format: protein-complex assay
[9] = biological target: T1, Transcription factor Jun; test: Inhibition of AP-1 (unknown origin) by FRET assay
[10] = biological target: T1, Transcription factor Jun; test: Inhibition of UVB-induced AP-1 activation (unknown origin) by cell-based assay
[11] = species on record: Gallus gallus; test: Antiangiogenic activity in chicken embryo assessed as inhibition of neovascularization at 10 ug; format: functional
[12] = biological target: T2, Transcription factor AP1; test: Inhibition of Fos-Jun dimer formation (unknown origin); format: protein-complex assay
[13] = biological target: T1, Transcription factor Jun; test: Inhibition of AP-1 (unknown origin) binding to AP-1 oligonucleotide by gel shift assay
[14] = biological target: Transcription factor Jun (Rattus norvegicus, UniProt P17325); test: Inhibition of AP-1-mediated collagenase production in IL1alpha-stimulated Lewis rat synovial cells
[15] = biological target: T1, Transcription factor Jun; test: Inhibition of AP-1 (unknown origin) expressed in TPA-stimulated mouse NIH3T3 cells by luciferase reporter gene assay; format: cell-based
[16] = biological target: T1, Transcription factor Jun; test: Inhibition of AP-1 bZIP domain DNA binding activity (unknown origin) by ELISA

Chain of Transcription factor Jun (Mus musculus) (P05627 whole entry): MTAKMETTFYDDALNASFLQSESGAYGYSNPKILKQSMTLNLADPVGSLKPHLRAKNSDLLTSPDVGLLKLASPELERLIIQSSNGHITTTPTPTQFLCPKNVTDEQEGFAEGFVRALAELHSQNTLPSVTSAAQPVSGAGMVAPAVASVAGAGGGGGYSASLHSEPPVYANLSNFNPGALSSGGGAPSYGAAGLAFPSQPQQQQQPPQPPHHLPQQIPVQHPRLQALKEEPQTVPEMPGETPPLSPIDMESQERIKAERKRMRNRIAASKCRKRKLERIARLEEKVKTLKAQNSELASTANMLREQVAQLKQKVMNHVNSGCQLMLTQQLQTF
Chain of Nuclear factor NF-kappa-B complex (P19838 1-433 limits assumed): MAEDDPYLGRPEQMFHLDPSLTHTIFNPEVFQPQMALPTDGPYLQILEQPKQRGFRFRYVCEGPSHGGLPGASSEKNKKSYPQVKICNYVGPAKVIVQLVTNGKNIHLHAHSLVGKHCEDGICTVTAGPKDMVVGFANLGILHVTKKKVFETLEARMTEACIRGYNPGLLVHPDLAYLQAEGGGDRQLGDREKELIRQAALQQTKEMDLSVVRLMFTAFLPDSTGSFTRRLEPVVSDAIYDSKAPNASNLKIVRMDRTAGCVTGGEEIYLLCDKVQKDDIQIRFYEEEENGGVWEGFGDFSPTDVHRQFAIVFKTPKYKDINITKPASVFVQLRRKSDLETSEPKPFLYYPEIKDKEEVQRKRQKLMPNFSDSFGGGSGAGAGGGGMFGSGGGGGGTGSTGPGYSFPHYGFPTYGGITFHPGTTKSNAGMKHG
Chain of Nuclear factor NF-kappa-B complex (Q00653 1-454 limits assumed): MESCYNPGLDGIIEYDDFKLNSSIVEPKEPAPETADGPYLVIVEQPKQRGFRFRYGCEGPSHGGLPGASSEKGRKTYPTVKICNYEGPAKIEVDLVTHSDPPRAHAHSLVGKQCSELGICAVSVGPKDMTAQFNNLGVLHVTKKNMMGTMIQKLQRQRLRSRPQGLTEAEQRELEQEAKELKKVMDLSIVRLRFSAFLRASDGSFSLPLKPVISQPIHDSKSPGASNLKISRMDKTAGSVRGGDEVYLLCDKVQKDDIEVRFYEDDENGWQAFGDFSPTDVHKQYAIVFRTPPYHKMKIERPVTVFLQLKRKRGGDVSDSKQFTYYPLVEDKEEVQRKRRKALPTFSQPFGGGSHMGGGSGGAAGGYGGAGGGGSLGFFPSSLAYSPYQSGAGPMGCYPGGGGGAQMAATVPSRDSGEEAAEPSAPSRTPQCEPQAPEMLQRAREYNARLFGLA
Chain of Nuclear factor NF-kappa-B complex (Q04206 whole entry): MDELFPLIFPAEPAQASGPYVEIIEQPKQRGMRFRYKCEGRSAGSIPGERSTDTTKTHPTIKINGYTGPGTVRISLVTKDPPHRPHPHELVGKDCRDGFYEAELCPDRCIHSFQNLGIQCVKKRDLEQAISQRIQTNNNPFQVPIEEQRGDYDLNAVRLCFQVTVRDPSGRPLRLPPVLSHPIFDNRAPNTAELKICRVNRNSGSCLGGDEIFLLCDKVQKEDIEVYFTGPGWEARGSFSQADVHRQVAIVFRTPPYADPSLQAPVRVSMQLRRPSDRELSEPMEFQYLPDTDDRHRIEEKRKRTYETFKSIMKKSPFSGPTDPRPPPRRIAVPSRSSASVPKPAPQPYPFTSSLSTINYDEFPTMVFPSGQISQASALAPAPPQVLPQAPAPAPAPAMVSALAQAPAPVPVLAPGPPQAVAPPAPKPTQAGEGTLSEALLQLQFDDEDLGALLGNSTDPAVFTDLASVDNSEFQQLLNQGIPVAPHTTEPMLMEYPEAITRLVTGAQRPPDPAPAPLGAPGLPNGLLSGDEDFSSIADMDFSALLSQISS
T1 sequence (P05412 whole entry): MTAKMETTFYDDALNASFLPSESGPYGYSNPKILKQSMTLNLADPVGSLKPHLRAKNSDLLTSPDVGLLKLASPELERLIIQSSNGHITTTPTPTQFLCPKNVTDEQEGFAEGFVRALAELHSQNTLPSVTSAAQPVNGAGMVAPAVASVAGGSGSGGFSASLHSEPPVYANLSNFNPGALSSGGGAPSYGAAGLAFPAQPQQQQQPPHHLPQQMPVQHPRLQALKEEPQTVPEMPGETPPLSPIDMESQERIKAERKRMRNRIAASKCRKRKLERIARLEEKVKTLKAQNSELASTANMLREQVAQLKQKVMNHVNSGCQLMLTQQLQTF
T2 sequence (P05412 whole entry): as above
T2 sequence (P01100 whole entry): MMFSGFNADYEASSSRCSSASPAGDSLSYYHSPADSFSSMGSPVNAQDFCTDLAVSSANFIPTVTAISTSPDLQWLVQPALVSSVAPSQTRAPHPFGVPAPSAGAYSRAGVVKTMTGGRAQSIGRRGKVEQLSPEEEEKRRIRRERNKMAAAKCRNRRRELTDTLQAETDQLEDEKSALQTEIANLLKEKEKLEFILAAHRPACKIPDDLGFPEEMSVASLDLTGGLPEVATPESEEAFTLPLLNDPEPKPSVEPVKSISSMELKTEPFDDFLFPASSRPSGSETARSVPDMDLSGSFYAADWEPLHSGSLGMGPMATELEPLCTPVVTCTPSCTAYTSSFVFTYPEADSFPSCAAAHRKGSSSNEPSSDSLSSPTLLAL
Chain of Transcription factor Jun (Rattus norvegicus, UniProt P17325) (P17325 whole entry): as the sequence (P05627 whole entry) above, with S48N, A193T counted along it

CNc1nc(C)c(-c2nc3ccccc3c(=O)n2-c2ccc(Cl)cc2)s1
IC50 [1]: 1.2 µM

Cc1nc(Cl)ncc1C(=O)Nc1cc(Cl)cc(Cl)c1
IC50 [2]: 500 nM

O=C(Nc1cc(Cl)cc(Cl)c1)c1cc(Cl)ccc1O
inhibition [3]: 74.8% | inhibition [4]: 22.7%

CC1=CC(=O)N(Nc2ncc(-c3coc(C)n3)c(-c3cccs3)n2)C1=O
IC50 [2]: 760 nM

CCOC(=O)c1cnc(NN2C(=O)C=C(C)C2=O)nc1-c1ccc(C)s1
IC50 [2]: 45 nM

CC1=CC[C@@H]2[C@](CC#N)(CC[C@H]3[C@@]2(C)CCC[C@@]3(C)C(=O)O)C1
Ratio [5]: 2.22

COc1cccc2nc(-c3cccs3)nc(NN3C(=O)C=C(C)C3=O)c12 [AS-602868]
IC50 [2]: 8 nM | inhibition (INH) [6]: 65%

O=C(Nc1cc(C(F)(F)F)cc(C(F)(F)F)c1)c1cc(I)ccc1O
inhibition [3]: 82.4% | inhibition [4]: 25.4%

O=C(Nc1cc(C(F)(F)F)cc(C(F)(F)F)c1)c1cnc(Cl)cn1
IC50 [7]: 4000 nM | IC50 [2]: 4000 nM

O=C(Nc1cc(Cl)cc(Cl)c1)c1cc(I)ccc1O
inhibition [3]: 75.4%

Cc1ccc(/C=C/C(=O)/C=C(O)/C=C/c2ccc(C)cc2)cc1
IC50 [8]: 8.98 µM

COc1cccc(/C=C/C(=O)/C=C(O)/C=C/c2cccc(OC)c2)c1
IC50 [8]: 5.4 µM

CC[C@](C)(O)C(=O)O[C@H]1C(=O)O[C@@H]2C[C@H]3C(C)=CC(=O)[C@@H](O)[C@]3(C)[C@H]3[C@@]4(O)OC[C@]32[C@@H]1[C@@H](C)[C@H]4O [GLAUCARUBINONE]
EC50 [9]: 1490 nM

O=C(Nc1cc(C(F)(F)F)cc(C(F)(F)F)c1)c1cc(Cl)ccc1O
inhibition [3]: 89.1% | inhibition [4]: 42.4%

COC(=O)C1=CO[C@@H](O[C@@H]2O[C@H](CO)[C@@H](O)[C@H](O)[C@H]2O)[C@H]2[C@@H]1[C@@H]1O[C@@H]1[C@]2(O)C(=O)O/C=C(\C(=O)O)c1ccc(O)c(OC)c1
IC50 [10]: 29 µM

CCOC(=O)c1cnc(C(F)(F)F)nc1NN1C(=O)C=C(C)C1=O
IC50 [7]: 1000 nM | IC50 [2]: 1000 nM

O=C(c1cnc(Cl)nc1C(F)(F)F)N1COCc2ccc(C(F)(F)F)cc21
IC50 [2]: 10000 nM

O=C(Nc1cc(C(F)(F)F)cc(C(F)(F)F)c1)c1nnc(Cl)cc1C(F)(F)F
IC50 [7]: 10000 nM | IC50 [2]: 10000 nM

COc1ccc2nc(-c3cccs3)nc(NN3C(=O)C=C(C)C3=O)c2c1
IC50 [2]: 3 nM

O=C(Nc1cc(C(F)(F)F)cc(C(F)(F)F)c1)c1cc(Br)ccc1O
inhibition [3]: 91.2% | inhibition [4]: 48.4%

CCOC(=O)c1cnc(-c2ccccc2)nc1NN1C(=O)C=C(C)C1=O
IC50 [7]: 100 nM | IC50 [2]: 100 nM

O=C(Nc1cc(C(F)(F)F)cc(C(F)(F)F)c1)c1ccc(Cl)nn1
IC50 [7]: 1700 nM | IC50 [2]: 1700 nM

C[C@@]12CC[C@H]3[C@]4(C)CCC[C@@](C)(C(=O)O)[C@H]4C[C@H](O)[C@]3(CC1=O)C2
Ratio [5]: 2.69

CNc1nc(C)c(-c2nc3ccccc3c(=O)n2-c2ccccc2C)s1
IC50 [1]: 5.5 µM

O=C(Nc1cc(C(F)(F)F)cc(C(F)(F)F)c1)c1cnc(Cl)nc1-c1ccccc1
IC50 [7]: 400 nM | IC50 [2]: 400 nM

COC1=C(C)[C@@H]2CC(=O)O[C@@H]3C[C@H]4[C@H](C)[C@@H](O)[C@H](O)C(=O)[C@]4(C)[C@@H](C1=O)[C@@]32C [NOTHOSPONDIN]
EC50 [9]: 130 nM

O=C(Nc1cc(C(F)(F)F)cc(C(F)(F)F)c1)c1cnc(F)nc1C(F)(F)F
IC50 [7]: 400 nM

C[C@@H]1C[C@H]2[C@@H]3CCC4=CC(=O)C=C[C@]4(C)[C@@]3(F)[C@@H](O)C[C@]2(C)[C@@]1(O)C(=O)CO
Ratio [5]: 2.33

Cc1nc(Cl)ncc1C(=O)Nc1cc(C(F)(F)F)cc(C(F)(F)F)c1
IC50 [7]: 50 nM

COc1cc(/C=C/C(=O)/C=C(O)/C=C/c2cc(OC)c(O)c([N+](=O)[O-])c2)cc([N+](=O)[O-])c1O
inhibition (INH) [11]: 68%

C[C@@]12CC[C@@H]3[C@@](CC[C@H]4[C@@]3(C)[C@@H](O)CC[C@@]4(C)C(=O)O)(COC1=O)C2
Ratio [5]: 2.66

CCOC(=O)c1cnc(NN2C(=O)C=C(C)C2=O)nc1CC
IC50 [2]: 400 nM

COc1cc(CC(C)C(C)Cc2ccc(O)c(OC)c2)ccc1O (stereo not drawn) [DIHYDROGUAIARETIC ACID]
IC50 [12]: 210 nM

C[C@@]12CC[C@H]3[C@]4(C)CCC[C@@](C)(C(=O)O)[C@H]4C[C@H](O)[C@]3(CC(=O)O1)C2
Ratio [5]: 2.39

C[C@@]12CC[C@@H]3[C@@](CC1=O)(C2)[C@@H](O)C[C@H]1[C@@]3(C)[C@@H](O)CC[C@@]1(C)C(=O)O
Ratio [5]: 2.98

C[C@@]12CC[C@@H]3[C@@](C/C1=N\O)(C2)[C@H](O)C[C@H]1[C@@]3(C)[C@@H](O)CC[C@@]1(C)C(=O)O
Ratio [5]: 2.69

C[C@@]12CC[C@@H]3[C@@](CC[C@H]4[C@@]3(C)CCC[C@@]4(C)C(=O)O)(C/C1=N\O)C2
Ratio [5]: 4.87

Cc1cc(C(=O)Nc2ccc(C(F)(F)F)cc2C(F)(F)F)nc(Cl)n1
IC50 [2]: > 10000 nM

C[C@@]12CC[C@@H]3[C@@](CC[C@H]4[C@@]3(C)CCC[C@@]4(C)C(=O)O)(COC1=O)C2
Ratio [5]: 1.88

O=C1Nc2cc(C(F)(F)F)ccc2Nc2nc(Cl)ncc21
IC50 [2]: 10000 nM

COC(=O)C1=CO[C@@H](O[C@@H]2O[C@H](CO)[C@@H](O)[C@H](O)[C@H]2O)[C@H]2[C@H]1C(C)=C[C@@]2(O)C(=O)O/C=C(\C(=O)O)c1ccc(O)c(OC)c1
IC50 [10]: 69.6 µM

O=C(Nc1cc(Cl)cc(Cl)c1)c1cc(Br)ccc1O
inhibition [3]: 83.8% | inhibition [4]: 39.3%

Cc1ccccc1-n1c(-c2sc(Nc3ccccc3)nc2C)nc2ccccc2c1=O
IC50 [1]: 5.5 µM

CCOC(=O)c1cnc(NN2C(=O)C=C(C)C2=O)nc1C(F)(F)F
IC50 [2]: 2000 nM

CC(=O)c1cnc(NN2C(=O)C=C(C)C2=O)nc1C(F)(F)F
IC50 [2]: 4400 nM

CC1=CC(=O)N(Nc2ncc(C(=O)c3ccccc3)c(C(F)(F)F)n2)C1=O
IC50 [2]: 98 nM

CC1=C[C@@]2(CC#N)CC[C@H]3[C@@](C)(CCC[C@@]3(C)C(=O)O)[C@@H]2CC1
Ratio [5]: 2.85

CC1(C)CC[C@]2(C(=O)O)CC[C@]3(C)C(=CC[C@@H]4[C@@]5(C)CC[C@H](O[C@@H]6O[C@H](C(=O)O)[C@@H](O)[C@H](O[C@@H]7OC[C@H](O)[C@H](O)[C@H]7O)[C@H]6O)C(C)(C)[C@@H]5CC[C@]43C)[C@@H]2C1
IC50 [8]: 130 µM

O=C(Nc1cc(C(F)(F)F)cc(C(F)(F)F)c1)c1cnc(Cl)nc1Cl
IC50 [7]: 600 nM

CC(Cc1ccc(O)c(O)c1)C(C)Cc1ccc(O)c(O)c1 (stereo not drawn) [NORDIHYDROGUAIARETIC ACID]
IC50 [12]: 7.9 nM

O=C(Nc1cc(C(F)(F)F)cc(C(F)(F)F)c1)c1cnc(Cl)nc1C(F)(F)F
IC50 [7]: 50 nM | IC50 [2]: 50 nM

CCOC(=O)c1cnc(N(C)N2C(=O)C=C(C)C2=O)nc1CC
IC50 [2]: 35 nM

CCOC(=O)c1cnc(N(C)N2C(=O)C=C(C)C2=O)nc1C(F)(F)F
IC50 [2]: 300 nM

C[C@@]12CC[C@@H]3[C@@](CC[C@H]4[C@@]3(C)CCC[C@@]4(C)C(=O)O)(CC(=O)O1)C2
Ratio [5]: 2.38

CCCc1c(C(=O)O)c(O)cc2c1C(=O)c1c(O)cccc1C2=O
IC50 [13]: 100 µM | IC50 [14]: 60 µM

CCc1nc(NN2C(=O)C=C(C)C2=O)ncc1-c1coc(C)n1
IC50 [2]: 830 nM

O=C(O)CCc1cc(C(=O)c2ccc(OC3CCCC3)cc2O)ccc1OCc1ccc2c(O)noc2c1
IC50 [15]: 10 µM | IC50 [16]: 10 µM

CC(C)COc1ccc(C(=O)c2ccc(OCC(C)C)c(CCC(=O)O)c2)cc1
IC50 [15]: 5 µM

CC(=O)c1ccc(-n2c(-c3cc(-c4ccncc4)c(N4CCOCC4)s3)nc3ccccc3c2=O)cc1
IC50 [1]: 5 µM

O=C(Nc1ccc(C(F)(F)F)cc1C(F)(F)F)c1cc(C(F)(F)F)nc(Cl)n1
IC50 [2]: > 10000 nM

CCOC(=O)c1cnc(-c2cccs2)nc1NN1C(=O)C=C(C)C1=O
IC50 [7]: 20 nM | IC50 [2]: 20 nM

C[C@@]12CCC[C@@](C)(C(=O)O)[C@H]1CC[C@@]13CC(=O)O[C@@](CO)(CC[C@H]12)C3
Ratio [5]: 2.58

CC1=CC(=O)N(Nc2ncc(C(=O)OC(C)(C)C)c(C(F)(F)F)n2)C1=O
IC50 [2]: 210 nM

C[C@H]1[C@H](C)CC[C@]2(COC(=O)c3ccccc3C(=O)O)CC[C@]3(C)C(=CC[C@@H]4[C@@]5(C)CC[C@H](OC(=O)c6ccccc6C(=O)O)C(C)(C)[C@@H]5CC[C@]43C)[C@H]12
IC50 [8]: 4 µM

C[C@@]12CCC[C@@](C)(C(=O)O)[C@H]1CC[C@]13CC(=O)O[C@](C)(C1)[C@H](O)C[C@H]32
Ratio [5]: 2.73

CC(=O)N[C@H]1CSSC[C@@H](C(N)=O)NC(=O)CNC(=O)[C@H](CC(=O)O)NC(=O)[C@H](C)NC(=O)[C@H](CC(C)C)NC(=O)[C@H](CC(=O)O)NC(=O)[C@H](CC(C)C)NC(=O)[C@H](CCC(N)=O)NC(=O)CNC1=O (Ac-CGQLDLADGC-NH2; disulfide 1-10)
IC50 [16]: 64 µM

Cc1nc(Nc2ccc(Cl)cc2)sc1-c1nc2ccccc2c(=O)n1-c1ccc(Cl)cc1
IC50 [1]: 1.2 µM
